Literature values, collected in patent US7265248B1, “Compositions and methods for the treatment of malaria” (Technology Innovations, LLC, priority 2005, dated 2007).
Read-outs that look alike come from different tables or passages of the source. Each block holds one compound with its values, some of them ahead of it.

How the values were obtained:
[1] = not given; remark: listed apart in the source
[2] = in vivo
alpha/beta III = molecular target: T1, alpha/beta III (Bos taurus, UniProt Q2T9S0); settings: compared with unfractionated tubulin
T1 construct: microtubules were prepared from bovine cerebra by the method of Fellous et al and tubulin was purified therefrom by phosphocellulose chromatography; from tissue; host or cells: bovine cerebra (brain)

alpha/beta IV = molecular target: T2, alpha/beta IV (Bos taurus, UniProt Q3ZBU7); settings: compared with unfractionated tubulin, alpha/beta II, alpha/beta III
T2 construct: microtubules were prepared from bovine cerebra by the method of Fellous et al and tubulin was purified therefrom by phosphocellulose chromatography; from tissue; host or cells: bovine cerebra (brain)

alpha/beta II = molecular target: T3, alpha/beta II (Bos taurus, UniProt Q6B856); settings: compared with unfractionated tubulin
T3 construct: microtubules were prepared from bovine cerebra by the method of Fellous et al and tubulin was purified therefrom by phosphocellulose chromatography; from tissue; host or cells: bovine cerebra (brain)

alpha/beta III dimer = alpha/beta III dimer (Bos taurus, UniProt Q2T9S0); settings: compared with alpha/beta II and alpha/beta IV dimers
alpha/beta III dimer, sequence (Q2T9S0 whole entry): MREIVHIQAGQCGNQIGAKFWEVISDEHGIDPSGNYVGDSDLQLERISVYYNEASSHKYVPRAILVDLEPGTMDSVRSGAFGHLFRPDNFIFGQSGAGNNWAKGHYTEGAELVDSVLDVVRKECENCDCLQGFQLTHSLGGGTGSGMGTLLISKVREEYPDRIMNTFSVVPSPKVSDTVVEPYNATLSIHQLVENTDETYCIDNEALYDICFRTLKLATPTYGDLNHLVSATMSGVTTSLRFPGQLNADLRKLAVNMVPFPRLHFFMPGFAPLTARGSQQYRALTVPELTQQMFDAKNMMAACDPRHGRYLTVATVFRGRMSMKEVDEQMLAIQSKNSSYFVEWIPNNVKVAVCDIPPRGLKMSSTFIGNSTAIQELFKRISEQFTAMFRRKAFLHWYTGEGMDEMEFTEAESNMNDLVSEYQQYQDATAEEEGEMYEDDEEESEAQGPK
alpha/beta III dimer, sequence (P81947 whole entry, further chain): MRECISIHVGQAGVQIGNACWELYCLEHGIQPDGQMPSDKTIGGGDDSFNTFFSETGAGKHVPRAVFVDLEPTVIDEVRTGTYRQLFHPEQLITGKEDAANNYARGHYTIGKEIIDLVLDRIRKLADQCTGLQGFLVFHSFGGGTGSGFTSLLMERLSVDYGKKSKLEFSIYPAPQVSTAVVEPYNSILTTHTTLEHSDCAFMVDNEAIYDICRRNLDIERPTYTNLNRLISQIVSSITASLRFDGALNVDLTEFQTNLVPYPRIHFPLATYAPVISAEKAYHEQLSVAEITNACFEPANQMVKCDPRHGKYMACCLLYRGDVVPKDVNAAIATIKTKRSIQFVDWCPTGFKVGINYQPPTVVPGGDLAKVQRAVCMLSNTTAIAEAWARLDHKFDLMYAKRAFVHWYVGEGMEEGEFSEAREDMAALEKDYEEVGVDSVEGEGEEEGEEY

T1 sequence (Q2T9S0 whole entry): as the sequence (Q2T9S0 whole entry) above
T1 sequence (P81947 whole entry, further chain): as the sequence (P81947 whole entry, further chain) above
T2 sequence (P81947 whole entry): as the sequence (P81947 whole entry, further chain) above
T2 sequence (Q3ZBU7 whole entry): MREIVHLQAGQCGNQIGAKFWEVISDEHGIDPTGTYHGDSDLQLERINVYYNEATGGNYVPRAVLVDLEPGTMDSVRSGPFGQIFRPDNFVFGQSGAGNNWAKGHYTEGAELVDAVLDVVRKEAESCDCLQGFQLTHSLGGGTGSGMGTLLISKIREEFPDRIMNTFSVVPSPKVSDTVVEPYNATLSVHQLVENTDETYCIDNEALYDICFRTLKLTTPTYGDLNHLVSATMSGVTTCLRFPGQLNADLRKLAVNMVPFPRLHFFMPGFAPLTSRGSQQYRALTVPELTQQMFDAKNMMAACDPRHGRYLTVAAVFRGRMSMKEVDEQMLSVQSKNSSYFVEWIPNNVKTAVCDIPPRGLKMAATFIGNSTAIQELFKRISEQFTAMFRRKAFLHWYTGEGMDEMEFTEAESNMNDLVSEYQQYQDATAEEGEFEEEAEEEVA
T3 sequence (P81947 whole entry): as the sequence (P81947 whole entry, further chain) above
T3 sequence (Q6B856 whole entry): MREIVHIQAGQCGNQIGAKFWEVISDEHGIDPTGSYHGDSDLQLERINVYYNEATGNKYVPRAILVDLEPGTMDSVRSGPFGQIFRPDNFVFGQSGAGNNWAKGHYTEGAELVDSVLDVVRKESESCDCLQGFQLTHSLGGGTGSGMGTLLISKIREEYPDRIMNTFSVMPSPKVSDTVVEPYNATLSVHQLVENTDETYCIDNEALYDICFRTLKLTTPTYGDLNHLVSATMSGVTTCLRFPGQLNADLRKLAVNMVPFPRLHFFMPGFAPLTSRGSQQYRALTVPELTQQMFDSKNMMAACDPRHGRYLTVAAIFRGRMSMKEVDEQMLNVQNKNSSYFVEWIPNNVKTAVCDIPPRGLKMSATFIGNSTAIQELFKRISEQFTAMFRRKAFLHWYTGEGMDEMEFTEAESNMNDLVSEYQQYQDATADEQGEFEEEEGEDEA

SMILES: COc1cc(NC(C)CCCN)c2ncccc2c1 (stereo not shown) [primaquine]
side effects [2]: blood dyscrasias

SMILES: COc1cc(OC)c(Cl)c(-n2c(-c3ccccc3)cc(=O)c(C)c2-c2ccc(F)cc2)c1 [IKP-104]
apparent dissociation constant for the high-affinity site (Kd1) (alpha/beta III): lower than that of unfractionated tubulin | apparent dissociation constant for the high-affinity site (Kd1) (alpha/beta IV): greater than those of unfractionated tubulin, alpha/beta II, or alpha/beta III | apparent dissociation constant for the high-affinity site (Kd1) (alpha/beta II): lower than that of unfractionated tubulin

SMILES: CC(=O)O[C@H]1C(=O)[C@@]2(C)[C@H]([C@H](OC(=O)c3ccccc3)[C@]3(O)C[C@H](OC(=O)[C@H](O)[C@@H](NC(=O)c4ccccc4)c4ccccc4)C(C)=C1C3(C)C)[C@]1(OC(C)=O)CO[C@@H]1C[C@@H]2O [paclitaxel]
interaction with ligand (alpha/beta III dimer): much less strongly

SMILES: CCN(CC)CCCC(C)Nc1ccnc2cc(Cl)ccc12 (stereo not shown) [chloroquine]
volume of distribution ([1]; in vivo): over 100 l/kg | half life ([1]; in words): days to weeks | side effects [2]: cardiovascular and CNS effects

Second part, led by results:

protein binding: ~98% | volume of distribution ([1]; in words): several times the volume of body water
SMILES: OC(c1cc(C(F)(F)F)nc2c(C(F)(F)F)cccc12)C1CCCCN1 (stereo not shown) [mefloquine]

protein binding: 99% | half life ([1]; in vivo): 36 to 72 h | pharmacokinetic profile ([1]; in words): double peaking
SMILES: O=C1C(O)=C([C@H]2CC[C@H](c3ccc(Cl)cc3)CC2)C(=O)c2ccccc21 [atovaquone]
side effects [2]: rash, vomiting, diarrhea, fever and headache

half life ([1]; in vivo): 80 to 95 h
SMILES: CCc1nc(N)nc(N)c1-c1ccc(Cl)cc1 [pyrimethamine]
side effects [2]: blood dyscrasias
